The test system of data set [1] is Candida albicans. The data set is described as follows: Antifungal activity against Candida albicans ATCC 10231 assessed as reduction in microbial growth after 12 to 18 hrs by microbroth dilution method. The data set is classed as functional. As to conditions: time 12-18 hrs. (Dilution methods test growth across graded concentrations, often in twofold steps.)
The nature of data set [2]: Cytotoxicity against human A549 cells assessed as reduction in cell viability at 13 uM by SRB assay relative to control. The data set is classed as toxicity, cell-based. The note with it: read-out: GI. Background: In SRB staining, fixed cells bind dye roughly in proportion to their protein.
Data set [3] concerns Escherichia coli. Briefly: […] activity against Escherichia coli ATCC 35218 assessed as reduction in microbial growth after 12 to 18 hrs by microbroth dilution method. The data set is classed as functional. The note with it: time 12-18 hrs.

One may read the MIC as the lowest concentration that inhibits growth of the organism.

Take `COc1ccc([C@@H]2SS[C@@]34C[C@]5(O)[C@H](O)C=C[C@@H](O)[C@@H]5ON3C(=O)[C@@H]2N(C)C4=O)c(O)c1OC`: in data set [1], the MIC worked out at 30 µg/mL.
`COc1ccc([C@@H]2SS[C@@]34C[C@]5(O)[C@H](OC(=O)/C=C/C=C/c6c(C)ccc7c6[C@H](C)C[C@H](C)C7)C=C[C@@H](O)[C@@H]5ON3C(=O)[C@@H]2N(C)C4=O)c(O)c1OC`: in data set [2], the inhibition at 13 µM came out at 90.7%.
Regarding `COc1ccc([C@@H]2SS[C@@]34C[C@]5(O)[C@H](OC(=O)/C=C/C=C/[C@@H]6[C@H]7[C@H](C)C[C@H](C)C[C@@H]7C=C[C@@H]6C)C=C[C@@H](O)[C@@H]5ON3C(=O)[C@@H]2N(C)C4=O)c(O)c1OC`, in data set [2], the inhibition at 13 µM was 51.7%.
In the case of `C[C@H]1C[C@@H](C)[C@@H]2[C@@H](/C=C/C=C/C(=O)O)[C@@H](C)C=C[C@H]2C1`, the minimum inhibitory concentration (MIC) in data set [3] was found to be 10 µg/mL; in data set [1], 20 µg/mL.

The record behind these values is ChEMBL document CHEMBL5120819, “Tanzawaic Acids from a Deep-Sea Derived Penicillium Species” (J Nat Prod, 2022).
